Laboratory results published in patent US20210395327A1, “Growth Hormone-Releasing Hormone Antagonists and Uses Thereof” (United States Government As Represented By The Department …, priority 2019, published 2021).
Entries after “also recorded” stand apart in the source; their conditions may differ. Non-standard residues stand in square brackets, D forms with d. Residues, ends and D or L forms follow the SMILES beside them. *: point of attachment. Phe(F5) = N[C@@H](Cc1c(F)c(F)c(F)c(F)c1F)C(=O)O; hArg = N=C(N)NCCCC[C@H](N)C(=O)O; 12Ado = NCCCCCCCCCCCC(=O)O; Nle = CCCC[C@H](N)C(=O)O; Orn = NCCC[C@H](N)C(=O)O; Abu = CC[C@H](N)C(=O)O; PhAc = O=C(Cc1ccccc1)*

What was measured:
[1] = test system: bleomycin-induced lung fibrosis (lung hydroxyproline content); assay: Bleomycin mouse model, lung hydroxyproline assay; type: in vivo, C57Bl/6J mice; details: bleomycin IP
Experimental: (§1) Abstract. Purpose. Growth hormone-releasing hormone (GHRH) is a 44-amino acid peptide that regulates growth hormone (GH) secretion. It was tested whether a GHRH receptor (GHRH-R) antagonist, MIA-602, would inhibit bleomycin-induced lung inflammation and/or fibrosis in C57Bl/6J mice. Methods. It was tested whether MIA-602 (5 μg or vehicle given subcutaneously [SC] on days 1-21) would decrease lung inflammation (at day 14) and/or fibrosis (at day 28) in mice treated with intraperitoneal (IP) bleomycin (0.8 units on days 1, 3, 7, 10, 14 and 21). […] Results. Inflammation (histopathologic scores assessed blindly) was less evident in mice treated with MIA-602 for 14 days. […] GHRH-R antagonist increased basal and maximal oxygen consumption of cultured lung fibroblasts. […] Conclusions. MIA-602 reduced lung inflammation and fibrosis due to bleomycin.
Experimental animals. 8-week old C57Bl/6J male mice (The Jackson Laboratory, Bar Harbor, Me.) were used in these experiments. Mice weighed about 26 grams at the start. Mice were randomly allocated to the experimental groups and housed in identical filter top cages in a ventilated rack. Mice were exposed to a 12-hour light/dark cycle and had free access to standard laboratory chow and water. […]
Hydroxyproline assay. […] Hydroxyproline was measured colorimetrically (560 nm) after hydrolysis using an assay kit (MAK008, Sigma-Aldrich, St. Louis, Mo.). […]

[2] = test system: bleomycin-induced lung inflammation and fibrosis; assay: Bleomycin mouse model, lung histopathology scores; type: in vivo, C57Bl/6J mice; details: bleomycin-treated mice
Experimental: as §1
Experimental animals. 8-week old C57Bl/6J male mice (The Jackson Laboratory, Bar Harbor, Me.) were used in these experiments. Mice weighed about 26 grams at the start. Mice were randomly allocated to the experimental groups and housed in identical filter top cages in a ventilated rack. Mice were exposed to a 12-hour light/dark cycle and had free access to standard laboratory chow and water.
(§2) Bleomycin and GHRH-R antagonist treatment. Mice were treated with 0.8 units of bleomycin (Bleomycin for Injection USP, Hospira, Lake Forest, Ill.) intraperitoneally (IP) on days 1, 3, 7, 10, 14 and 21 (Collins S, Chan-Li Y, Oh M, Vigeland C, Limjunyawong N, Mitzner W, Powell J D, Horton M R (2016). JCI Insight 1(4):1-13). Mice (randomly assigned) were simultaneously treated subcutaneously (sc) with MIA-602 (5 μg/day) or its vehicle (100 μL/day). MIA-602 was dissolved in DMSO (ACS grade; Sigma-Aldrich) and diluted 1:500 in normal saline for daily sc injection on days 0-21.
(§3) Tissue preparations. Mice were killed by CO2 inhalation before any treatment, or on days 14 or 28 for micro-CT scans of lungs and harvesting of lung tissue (Vande Vel de G, Poelmans J, De Langhe E, Hillen A, Vanoirbeek J, Himmelreich U, Lories R (2016). Dis Model Mech 9:91). The right mainstem bronchus was ligated and the right lung removed and frozen at −80° C. for hydroxyproline (HP) assays. The left lung was filled with 10% buffered formalin at […] cm H2O pressure, the bronchus ligated, and the lung fixed in formalin. Fixed lungs were embedded in wax and 5 μm sections stained with hematoxylin and eosin (H&E) or Masson's trichrome stain.
Lung histopathology. Fibrosis was quantified in trichrome-stained sections using a modification of the Ashcroft score that describes grades of fibrosis. Inflammation in lung tissue was quantified in H&E stained sections (Hubner R, Gitter W, El Mokhtari N, Mathiak M, Both M, Bolte H, Freitag-Wolf S, Bewig B (2008). Biotechniques 44:507-517).
Data analysis. Data are reported as arithmetic means±SEM or SD as indicated. Confidence intervals (5-95%) and ranges were used to describe histopathological scores. ANOVA followed by Dunnett's test or the Bonnferoni correction was used for multiple comparisons with a control or among groups (Kusuoka H, Hoffman J (2002). Circ Res 91:662-671). At least six mice were planned to be available at each time point in each group, so that there would be sufficient power to detect a 20% change in lung hydroxyproline given an assumed coefficient of variance of 0.2. P≤0.05 was considered significant.

[3] = test system: bleomycin-induced lung infiltrates; assay: Bleomycin mouse model, micro-CT of lungs; type: in vivo, C57Bl/6J mice; details: bleomycin plus MIA-602 vs vehicle
Experimental: as §2, §3
Micro-CT. Mice in each group were assessed by micro-CT scans (Bruker SkyScan 1176 Low Dose Micro-CT, Knotich, Belgium) of the lungs after CO2 inhalation. […]

[4] = test system: mouse lung fibroblasts (Mlg 2908); assay: Annexin V-propidium iodide assay of lung fibroblasts; type: cell-based; details: 24 hours, annexin-V/PI
Experimental: (§4) Lung fibroblasts. Newborn mouse lung fibroblasts (Mlg 2908) were obtained from the American Type Culture Collection, Manassas, Va. and cultured in Eagle's minimal essential medium. Cells were grown in 6-well plates before incubation with 1 or 5 μM MIA-602 or vehicle, RNA isolation, and oxygen consumption measurements.
Annexin V-propidium iodide assay. Apoptosis and necrosis were assessed with annexin-V/propidium iodide staining (Annexin V: FITC Assay Kit, Bio Rad, Hercules, Calif. 94547) of lung fibroblasts incubated in 0, 1 or 5 μM MIA-602 for 24 hours (Rieger A, Nelson K, Konowalchuk J, Barreda D. (2011). J Visualized Experiments 50:e2597). Culture medium and trypsinized cells were collected and centrifuged at 400×g for 5 minutes. The pellet was resuspended in 100 μL annexin-V/propidium iodide. The suspension was incubated at 37° C. for 20 minutes, then washed with PBS and resuspended in 500 μL PBS and fluorescence quantified by Beckman Coulter Life Sciences CytoFLEX benchtop flow cytometer (Beckman Coulter, Inc., Brea, Calif.).

[5] = test system: mouse lung fibroblasts (Mlg 2908); assay: Cellular respiration, Seahorse XF Cell Mito Stress Test; type: cell-based
Experimental: as §4
Cellular respiration. The effects of MIA-602 on mouse lung fibroblast oxygen consumption was measured using the Agilent Seahorse XF Cell Mito Stress Test (Agilent Technologies, Santa Clara, Calif.) (Divakaruni A, Paradyse A, Ferrick D, Murphy A, Jastroch M (2014). Methods in Enzymology 547:309-354). Fibroblasts were incubated with vehicle, 1 or 5 μM MIA-602 for 24 hours before measurement of oxygen consumption. One day before assay 80,000 fibroblasts were seeded into Seahorse 24-well plates (n=6 wells per condition). Basal respiration was established and oligomycin, FCCP and rotenone plus antimycin A were added sequentially to measure ATP production, uncoupled respiration; and, non-mitochondrial oxygen consumption (Wangpaichitr, Wu C, Li Y, Nguyen D, Kandemir H, Shah S, Chen S, Feun L, Prince J, Kuo M, Savaraj N (2017). Oncotarget 8(30):49275-49292).

Compound: CCCC[C@H](NC(=O)[C@@H](NC(=O)[C@H](CC(=O)O)NC(=O)[C@H](CCC(N)=O)NC(=O)[C@H](CC(C)C)NC(=O)[C@H](CC(C)C)NC(=O)[C@H](CCCN)NC(=O)[C@H](Cc1c[nH]cn1)NC(=O)[C@H](C)NC(=O)[C@H](CO)NC(=O)[C@H](CC(C)C)NC(=O)[C@H](CCC(N)=O)NC(=O)[C@H](CC)NC(=O)[C@H](CC(C)C)NC(=O)[C@@H](NC(=O)[C@H](CCCN)NC(=O)[C@H](Cc1c[nH]cn1)NC(=O)[C@H](Cc1ccc(OC)cc1)NC(=O)[C@H](CCCCNC(=N)N)NC(=O)[C@H](C)NC(=O)[C@@H](NC(=O)[C@H](Cc1c(F)c(F)c(F)c(F)c1F)NC(=O)[C@@H](NC(=O)[C@H](C)NC(=O)[C@H](CC(=O)O)NC(=O)[C@@H](CCCNC(=N)N)NC(=O)[C@H](Cc1ccc(O)cc1)NC(=O)CCCCCCCCCCCNC(=O)Cc1ccccc1)[C@@H](C)CC)[C@@H](C)O)C(C)C)[C@@H](C)CC)C(=O)N[C@H](CCCNC(=N)N)C(=O)N[C@@H](CCCCNC(=N)N)C(N)=O [MIA-602, PhAC-Ada, Tyr D-Arg, Asp, Ala, Ile, 5FPhe, Thr, Ala, Har, Tyr(Me), His, Orn, Val, Leu, Abu, Gin, Leu, Ser, Ala, His, Om, Leu, Leu, Gin, Asp, Ile; Nle, D-Arg, Har NH2, reference compound] ({PhAc-12Ado}-Y[dR]DAI[Phe(F5)]TA[hArg]Y(Me)H[Orn]VL[Abu]QLSAH[Orn]LLQDI[Nle][dR][hArg]-NH2)
- lung hydroxyproline (HP) content, change (in words) ([1]; 14 days, MIA-602 5 μg/day sc): did not increase significantly
- lung hydroxyproline (HP) content, change (in words) ([1]; 28 days, MIA-602 5 μg/day sc days 1-21, right lung): increased significantly in bleomycin-treated mice that received vehicle, but not in bleomycin-treated mice that received MIA-602; also recorded: No significant increase in HP content
- lung inflammation histopathologic score, 5%-95% CI ([2]; after 14 days, n=4): 0.4-1.4
- lung inflammation histopathologic score, range ([2]; after 14 days, n=4): 0.6-1.2
- lung fibrosis histopathologic score (modified Ashcroft), 5%-95% CI ([2]; after 28 days, n=5): 1.1-2.9
- lung fibrosis histopathologic score (modified Ashcroft), range ([2]; after 28 days, n=5): 1.0-3.0
- lung fibrosis, histopathology (in words) ([2]; MIA-602 vs vehicle): decreased; also recorded: Less fibrosis appeared to be present
- lung inflammation, histopathology (in words) ([2]; MIA-602 vs vehicle): decreased; also recorded: Less inflammation appeared to be present
- infiltrative densities in lungs, micro-CT (in words) [3]: less prominent infiltrative densities
- cytolytic cell death ([4]; 1 μM): 9.3±1.1%
- cytolytic cell death ([4]; 5 μM): 34.9±2.5%
- basal respiration / basal oxygen consumption (in words) ([5]; 5 μM for 24 hours, vs vehicle): increased
- maximal, uncoupled respiration (after FCCP) (in words) ([5]; 5 μM for 24 hours, vs vehicle): increased
- spare respiratory capacity (in words) ([5]; 5 μM for 24 hours, vs vehicle): increased
- non-mitochondrial respiration (after antimycin A and rotenone) (in words) ([5]; 1 and 5 μM for 24 hours): appeared to increase
